Legend:
Recombinant human PDE4B = Recombinant human PDE4B (Homo sapiens (Human), UniProt Q07343); experiment: PDE4B enzyme inhibition, fluorescence polarization (Transcreener AMP2/GMP2); type: biochemical
Procedure: The biological assay was based on fluorescence polarization measurement of AMP/GMP expression, that is, tracing binding of AMP/GMP antibody to indicate the activity of the enzyme.
Buffer solution for the assay: 10 mM trihydroxymethyl aminomethane-hydrochloric acid buffer solution (Tris-HCl) (pH 7.5), 5 mM MgCl2, 0.01% polyoxyethylene lauryl ether (Brij 35), 1 mM dithiothreitol (DTT), and 1% DMSO.
Enzyme: Recombinant human PDE4B (Genebank Accession Number NM_002600; amino acid 305 terminal) was expressed with baculovirus in Sf9 insect cells using N-terminal GST tag. MW=78 kDa.
Enzyme substrate: 1 μM cAMP
Detection: Transcreener® AMP2/GMP2 antibody and AMP2/GMP2 AlexaFluor633 tracing.
• 1. Dissolving the recombinant human PDE4B enzyme and enzyme substrate (1 μM cAMP) in freshly prepared assay buffer, respectively; • 2. Transferring the above PDE4B enzyme buffer solution to reaction wells; • 3. Adding compound 1 dissolved with 100% DMSO to reaction wells with the PDE4B enzyme buffer solution via acoustic technology (echo 550 nanoliter range) and incubating at room temperature for 10 min; • 4. […] The range of fluorescence polarization determination was Ex/Em=620/688. […]
The fluorescence polarization signal was converted into nM based on AMP/GMP standard curve and % enzyme activity calculated by Excel software relative to the DMSO control. […]

[1] = test system: lipopolysaccharide (LPS)-induced TNFα production in human peripheral blood mononuclear cells; experiment: Inhibition of LPS-induced TNFα production in hPBMC (ELISA); type: cell-based
Procedure: Inhibitory activity of compound 1 on lipopolysaccharide (LPS)-induced TNFα production in human peripheral blood mononuclear cells.
PBMC cells were inoculated into a 96-well plate of cell culture grade at a density of 100,000 cells/100 μL/well. The cell culture medium was RPMI-1640 supplemented with 10% serum. The plate was incubated in a 37° C., 5% CO2 incubator for 2 hours. 16.8 μL/well of the assay compound was added to the cells and then the cells were incubated in a 37° C., 5% CO2 incubator for 60 minutes. 16.8 μL/well of LPS was then added to the cells and the cells were incubated in a 37° C., 5% CO2 incubator for 18 hours. The final DMSO concentration was 0.1%.
In the first step, compound 1 was diluted from a stock concentration to 1.5 mM with 100% DMSO. In the second step, the diluted compound was used as the first point and serially diluted 3-fold with 100% DMSO for 9 points. In the third step, the compound was diluted 125-fold with a serum-free medium, at which time the concentration of DMSO was 0.8%. Then 16.8 μL of the compound diluted with the medium was transferred to a 100 μL cell plate.
The compound was added, and then the cell plate was placed in a 37° C., 5% CO2 incubator and incubated for 1 hour.
In the first step, LPS was diluted with ultrapure water to a stock concentration of 1 mg/mL. […]

[2] = test system: PMA-induced ear edema in CD-1 mice; experiment: In vivo model of PMA-induced ear edema in CD-1 mice; conditions: for inhibition rate of ear edema / inhibition rate of ear weight gain: application BID, 10 hours after PMA induction
Procedure: 1 mL of acetone was added to completely dissolve 1 mg of PMA, and then 800 μL of mother liquor was pipetted and added to 2400 μL of acetone to prepare 0.25 mg/mL PMA.
CD-1 mice were sorted according to ear thickness and body weight. […] 10 μL of PMA with a concentration of 0.25 mg/mL was applied to the front and back sides of the right ear of each mouse.
The mice in the first group were normal mice, and these mice will not be treated in any way; the mice in the second group were given a vehicle; and the mice in the third group, the fourth group, and the fifth group were given compound 1 at a dose of 0.1 mg/ear, 0.3 mg/ear, and 1 mg/ear, respectively. Drugs were applied to the right ear of the mice 30 minutes before and 15 minutes after PMA induction, respectively.
Measurement and sampling: Ten hours after PMA induction, the mice were anesthetized and the thickness of the right ear was measured. After measuring the thickness of the right ear, the mouse was immediately euthanized, and the ear piece was collected and weighed.
The assay data was expressed as mean±standard error of mean (Mean±SEM), and the degree of ear swelling and ear weight were analyzed by one-way analysis of variance (One-way ANOVA), wherein p<0.05 was considered a significant difference.

Sequence of Recombinant human PDE4B (Q07343 305-736 limits assumed): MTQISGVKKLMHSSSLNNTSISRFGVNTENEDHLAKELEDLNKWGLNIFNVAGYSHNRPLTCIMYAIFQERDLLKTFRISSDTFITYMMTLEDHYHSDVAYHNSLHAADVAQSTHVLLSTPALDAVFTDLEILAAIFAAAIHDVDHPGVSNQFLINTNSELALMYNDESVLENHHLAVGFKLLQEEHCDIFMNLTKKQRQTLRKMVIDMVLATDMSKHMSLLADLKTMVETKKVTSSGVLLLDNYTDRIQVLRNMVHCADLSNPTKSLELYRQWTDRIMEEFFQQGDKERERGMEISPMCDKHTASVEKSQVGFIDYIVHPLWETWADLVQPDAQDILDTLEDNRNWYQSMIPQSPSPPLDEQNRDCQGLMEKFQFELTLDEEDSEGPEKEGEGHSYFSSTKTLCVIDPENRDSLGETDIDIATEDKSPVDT

What does the source list for CCOc1cc([C@@H](CS(C)(=O)=O)n2c(=O)[nH]c3cc(F)ccc32)ccc1OC [Compound 1]?
in vitro activity of inhibiting PDE4B (in words) (Recombinant human PDE4B): excellent in vitro activity; IC50 (Recombinant human PDE4B; PDE4B, 1 μM cAMP substrate, average in triplicate): 26.2 nM; in vitro activity of inhibiting TNFα production in hPBMC (in words) [1]: excellent in vitro activity; IC50 ([1]; Homo sapiens, PBMC, TNFα production in hPBMC, LPS 18 hours, average in triplicate): 63.9 nM; inhibition rate of ear edema ([2]; 0.1 mg/ear): 22%; inhibition rate of ear weight gain ([2]; 0.1 mg/ear): 39%; inhibition rate of ear edema ([2]; 0.3 mg/ear): 39%; inhibition rate of ear weight gain ([2]; 0.3 mg/ear): 46%; inhibition rate of ear edema ([2]; 1 mg/ear): 88%; inhibition rate of ear weight gain ([2]; 1 mg/ear): 85%; effect on the symptoms of PMA-induced ear edema (in words) ([2]; three dose groups of 0.1, 0.3 and 1 mg/ear): significant improvement effect
